Laboratory results taken from US12391698B2, “Substituted piperidines and piperazines and methods for the treatment of CNS disorders” (SUVEN LIFE SCIENCES LIMITED, priority 2022, dated 2025).
Structures can show the parent of a compound that is named as a salt. Where two headings read alike, the source gives them in different places.

Legend:
[1] = Rodent brain penetration study; assay type: in vivo; settings: rat, po, fed male Wistar rats, 3 mg/kg p.o., mean ± S.D, n = 3, read-out: Rat Brain Penetration (Cbrain/Cplasma) at 3 mg/kg, p.o. @ 1 h
Experimental: Male Wistar rats (260±40 g) were used as experimental animals. Three animals were housed in each cage. Animals were given water and food ad libitum throughout the experiment and maintained on a 12 h light/dark cycle.
Brain penetration was determined in discrete manner in rats. One day prior to dosing, male Wistar rats were acclimatized and randomly grouped according to their body weight. At each time point (0.50, 1 and 2 h), n=3 animals were used.
The test compounds were suitably preformulated and administered orally at (free base equivalent) 3 mg/kg. Blood samples were removed via cardiac puncture under isoflurane anesthesia. The animals were sacrificed to collect brain tissue. Plasma was separated and brain samples were homogenized. Plasma and brain homogenates were stored frozen at −20° C. until analysis. The concentrations of the test compounds in plasma and brain were determined using LC-MS/MS method.
The test compounds were quantified in plasma and brain homogenate by qualified LC-MS/MS method using suitable extraction technique in the calibration range of 1-500 ng/mL. Study samples were analyzed using calibration samples in the batch and quality control samples spread across the batch. Extent of brain-plasma ratio (Cbrain/Cplasma) was calculated.

[2] = Rodent pharmacokinetic study; assay type: in vivo, Male Wistar rats; settings: rat, plasma, mean ± S.D, n = 3; for bioavailability: oral 3 mg/kg vs intravenous 1 mg/kg, read-out: F (Bioavailability)
Experimental: Male Wistar rats (260±50 g) were used as experimental animals. Animals were housed individually in polypropylene cage. Two days prior to study, male Wistar rats were anesthetized with isoflurane for surgical placement of jugular vein catheter. Rats were randomly divided for oral (3 mg/kg) and intravenous (1 mg/kg) dosing (n=3/group) and fasted overnight before oral dosing (p.o.). However, food and water were provided ad libitum to the rats allocated for intravenous dosing.
At pre-determined time points, blood samples were collected through jugular vein and replenished with an equivalent volume of normal saline. Collected blood was transferred into a labeled eppendorf tube containing 10 μL of heparin as an anticoagulant. Typically blood samples were collected at 0.08, 0.25, 0.5, 1, 2, 4, 6, 8, and 24 h post dose. Blood samples were centrifuged at 4000 rpm for 10 min. Plasma was separated and stored frozen at −80° C. until analysis. The concentrations of the test compounds were quantified in plasma by qualified LC-MS/MS method using suitable extraction technique. The test compounds were quantified in the calibration range around 1-1000 ng/mL in plasma. Study samples were analyzed using calibration samples in the batch and quality control samples spread across the batch.
Pharmacokinetic parameters Cmax, AUCt, t1/2. Clearance and Bioavailability (F) were calculated using standard non-compartmental model by using Phoenix WinNonlin 6.0.4 version software package.

[3] = target: cloned human SERT receptor (Homo sapiens, UniProt P31645); assay: Determination of Ki at SERT receptor (SPA binding, [3H]-Citalopram); settings: HEK293 recombinant cells, [3H]-Citalopram 2 nM
Method in brief: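 HEK293-expressed human SERT; [3H]-citalopram at 2 nM final, nonspecific binding with 0.1 mM venlafaxine. Incubated 3 h at r.t. in 50 mM Tris-HCl pH 7.4, 150 mM NaCl, 5 mM KCl with SPA beads. Bead-proximal radioactivity compared with control values.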

[4] = target: T1, recombinant rat 5-HT7 receptor (Rattus norvegicus, UniProt P32305); assay: Determination of Kb at 5-HT7 receptor, pCRE-Luc reporter gene assay in CHO cells; assay type: cell-based; settings: for antagonistic activity at rat recombinant 5-HT7 receptor: pCRE-Luc reporter gene assay
T1 construct: expressed in transfected cells
Experimental: A stable CHO cell line expressing recombinant rat 5-HT7 receptor and pCRE-Luc reporter system was used for cell-based assay. The assay offers a non-radioactive based approach to determine binding of a compound to GPCRs. In this specific assay, the level of intracellular cAMP which is modulated by activation or inhibition of the receptor is measured. The recombinant cells harbor luciferase reporter gene under the control of cAMP response element.
The above cells were grown in 96 well clear bottom white plates in Hams F12 medium containing 10% fetal bovine serum (FBS). Prior to the addition of compounds or standard agonist, cells were serum starved overnight. Increasing concentrations of test compound were added along with 1 μM of serotonin in Opti-MEM medium to the cells. The incubation was continued at 37° C. in CO2 incubator for 4 hours. Medium was removed and cells were washed with phosphate buffered saline. The cells were lysed and luciferase activity was measured in a Luminometer. Luminescence units were plotted against the compound concentrations using GraphPad Prism software. EC50 values of the compounds were defined as the concentration required in reducing the luciferase activity by 50%. The Kb values were calculated by feeding the concentration of agonist used in the assay and its EC50 value in the same software.

[5] = target: T1, recombinant rat 5-HT7 receptor; assay: as above; assay type: cell-based
[6] = target: T2, cloned human 5-HT2A receptor (Homo sapiens, UniProt P28223); assay: Determination of Ki at 5-HT2A receptor (radioligand binding, [3H]-Ketanserine); settings: CHO-K1 recombinant cells, [3H]-Ketanserine 1.25 nM
T2 construct: expressed in transfected cells; host or cells: CHO-K1
Method in brief: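 Membranes from CHO-K1 cells expressing the receptor, incubated 1 h at r.t. with 1.25 nM [3H]-ketanserin in pH 7.4 Tris-HCl 50 mM, 4 mM CaCl2, 0.1% ascorbic acid. Nonspecific binding defined with 0.1 mM 1-naphthylpiperazine; bound label measured after filtration.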

[7] = intravenous (bolus) 1 mg/kg, male Wistar rats
[8] = oral (gavage) 3 mg/kg, fasted male Wistar rats
[9] = rat receptor, with 1 μM serotonin, luciferase readout, read-out: Kb at 5-HT7 receptor

T2 sequence (P28223 whole entry): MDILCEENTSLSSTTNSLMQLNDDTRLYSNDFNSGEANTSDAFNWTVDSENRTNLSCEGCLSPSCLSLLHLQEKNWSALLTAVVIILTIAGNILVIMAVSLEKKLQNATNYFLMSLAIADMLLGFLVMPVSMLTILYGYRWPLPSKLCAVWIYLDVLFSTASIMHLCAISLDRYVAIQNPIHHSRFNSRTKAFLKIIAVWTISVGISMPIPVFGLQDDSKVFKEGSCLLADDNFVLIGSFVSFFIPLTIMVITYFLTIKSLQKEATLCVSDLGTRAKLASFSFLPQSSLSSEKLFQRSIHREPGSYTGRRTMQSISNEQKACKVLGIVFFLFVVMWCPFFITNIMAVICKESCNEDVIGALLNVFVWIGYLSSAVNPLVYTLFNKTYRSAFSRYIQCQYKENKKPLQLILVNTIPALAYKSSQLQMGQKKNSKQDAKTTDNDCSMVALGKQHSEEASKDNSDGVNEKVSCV
T1 sequence (P32305 whole entry): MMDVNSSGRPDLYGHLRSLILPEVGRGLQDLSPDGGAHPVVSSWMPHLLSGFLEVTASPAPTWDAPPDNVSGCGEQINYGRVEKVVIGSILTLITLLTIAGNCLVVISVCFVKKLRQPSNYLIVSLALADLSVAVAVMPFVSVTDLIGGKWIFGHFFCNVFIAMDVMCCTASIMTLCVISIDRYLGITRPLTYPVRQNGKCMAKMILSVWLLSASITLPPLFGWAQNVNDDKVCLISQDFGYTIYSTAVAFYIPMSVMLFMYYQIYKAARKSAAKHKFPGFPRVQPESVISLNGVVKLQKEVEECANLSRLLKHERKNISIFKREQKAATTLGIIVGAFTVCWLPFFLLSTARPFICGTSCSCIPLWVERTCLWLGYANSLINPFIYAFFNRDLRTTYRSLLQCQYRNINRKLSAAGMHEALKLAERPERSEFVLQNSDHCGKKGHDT
Chain of cloned human SERT receptor (P31645 whole entry): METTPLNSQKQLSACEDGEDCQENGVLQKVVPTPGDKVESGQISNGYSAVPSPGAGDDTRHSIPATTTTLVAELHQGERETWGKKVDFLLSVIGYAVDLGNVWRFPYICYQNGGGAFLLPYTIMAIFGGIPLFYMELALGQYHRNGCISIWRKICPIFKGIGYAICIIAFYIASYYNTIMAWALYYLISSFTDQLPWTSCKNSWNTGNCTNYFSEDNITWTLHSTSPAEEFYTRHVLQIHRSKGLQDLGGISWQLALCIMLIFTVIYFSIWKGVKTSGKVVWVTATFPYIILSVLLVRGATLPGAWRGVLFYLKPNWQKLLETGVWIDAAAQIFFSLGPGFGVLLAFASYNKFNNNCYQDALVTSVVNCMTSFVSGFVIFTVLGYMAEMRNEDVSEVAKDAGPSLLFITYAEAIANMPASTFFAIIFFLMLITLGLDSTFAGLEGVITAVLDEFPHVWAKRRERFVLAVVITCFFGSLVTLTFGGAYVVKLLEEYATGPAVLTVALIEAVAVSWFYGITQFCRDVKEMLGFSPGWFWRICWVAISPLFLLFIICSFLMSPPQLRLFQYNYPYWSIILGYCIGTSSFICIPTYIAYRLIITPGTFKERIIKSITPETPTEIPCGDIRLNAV

Row | SMILES | Kp at 1 h ([1]; brain/plasma) | AUC(0-t) [2, 7] | clearance [2, 7] | half-life [2, 7] | bioavailability ([2]; male Wistar rats) | AUC(0-t) [2, 8] | Cmax [2, 8] | half-life [2, 8] | Ki ([3]; read-out: Ki hSERT) | antagonistic activity at rat recombinant 5-HT7 receptor [4] | Kb [4, 9] | agonist activity at rat recombinant 5-HT7 receptor [5] | Ki ([6]; read-out: Ki h5-HT2A) | Kp at 1 h ([1]; in vivo) | Ki ([3]; Ki hSERT) | Kb [4] | Ki ([6]; Ki h5-HT2A)
1 | O=C1C[C@@H]2CCCN2C(=O)N1CCCCN1CCN(c2nsc3ccccc23)CC1 [Example 2, 2-[4-(4-Benzo[d]isothiazol-3-yl-piperazin-1-yl)-butyl]-tetrahydro-pyrrolo[1,2-c]pyrimidine-1,3-dione oxalate] | 0.49 ± 0.08 | 544 ± 19 ng·h/mL | 30 ± 1 mL/min/kg | 2 ± 0.7 h | 15 ± 3% | 244 ± 53 ng·h/mL | 253 ± 59 ng/mL | 1.3 ± 0.1 h | 1060 nM | antagonistic activity | 0.6 nM | no detectable agonist activity | 0.6 nM | – | – | – | –
2 | O=C1C[C@@H]2C[C@H](F)CN2C(=O)N1CCCCN1CCN(c2nsc3ccccc23)CC1 [Example 9, 2-[4-(4-Benzo[d]isothiazol-3-yl-piperazin-1-yl)-butyl]-6-fluoro-tetrahydro-pyrrolo[1,2-c]pyrimidine-1,3-dione oxalate] | 0.4 ± 0.13 | 415 ± 69 ng·h/mL | 40 ± 6 mL/min/kg | 1.8 ± 0.1 h | 14 ± 2% | 178 ± 23 ng·h/mL | 164 ± 43 ng/mL | 1.4 ± 0.3 h | 833 nM | antagonistic activity | 0.7 nM | no detectable agonist activity | 2.49 nM | – | – | – | –
3 | O=C1C[C@@H]2C[C@H]3C[C@H]3N2C(=O)N1CCCCN1CCN(c2nsc3ccccc23)CC1 [Example 11, 3-[4-(4-Benzo[d]isothiazol-3-yl-piperazin-1-yl)-butyl]-hexahydro-1b,3-diaza-cyclopropa[a]indene-2,4-dione oxalate] | – | 412 ± 44 ng·h/mL | 41 ± 5 mL/min/kg | 1.3 ± 0.1 h | 8 ± 5% | 98 ± 63 ng·h/mL | 94 ± 52 ng/mL | 2 ± 0.2 h | – | antagonistic activity | – | no detectable agonist activity | – | 0.09 ± 0.16 | 1280 nM | 0.17 nM | 1.02 nM
4 | O=C1C[C@@H]2CCCN2C(=O)N1CCCCN1CCN(c2cccc3sccc23)CC1 [Example 4, 2-[4-(4-Benzo[b]thiophen-4-yl-piperazin-1-yl)-butyl]-tetrahydro-pyrrolo[1,2-c]pyrimidine-1,3-dione oxalate] | 2.14 ± 0.88 | 350 ± 40 ng·h/mL | 48 ± 5 mL/min/kg | 0.8 ± 0.2 h | 16 ± 1% | 169 ± 14 ng·h/mL | 77 ± 2 ng/mL | 1.1 ± 0.3 h | 228 nM | – | – | – | 4.24 nM | – | – | – | –
